This experiment addresses T1, human CaMKIIδ (Homo sapiens, UniProt Q13557).
T1 construct: Full-length, glutathione-S-transferase(GST)-tagged, human CaMKIIδ was purchased from Carna Biosciences; purchased Carna Biosciences (CaMKIIδ); Wako Pure Chemical Industries (calmodulin) 02-111
The experiment in a line: Evaluation of in vitro CaMKII inhibitory activity (binding assay, TR-FRET). The conditions noted are these: human CaMKIIδ, TR-FRET binding assay; class symbols A/B/C; read-out: Act (CaMKII inhibitory activity, binding assay). The gist of the method: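 Inhibitors, in eight concentrations of 4-fold dilution, were incubated 1 h at room temperature with a protein–fluorescent probe premix preformed 30 min on ice, containing calmodulin and terbium anti-GST antibody. Displacement read by TR-FRET in duplicate; IC50 by logistic fitting.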
Consider `C[C@@H](Cn1cnnn1)Oc1cc(-c2ccc3ncc(-c4cc(C(=O)NCCN5CCOCC5)ccc4C#N)n3n2)ccc1F` [compound 148], for which the IC50 is 10 to 100 nM.
As to `C[C@@H](Cn1cnnn1)Oc1cc(-c2ccn3ncc(-c4ccccc4C(F)F)c3n2)ccc1F` [compound 149], the IC50 lay in the range of 10 to 100 nM.
As for `C[C@@H](Cn1cnnn1)Oc1cc(-c2ccc3ncn(-c4ccccc4C#N)c3n2)ccc1F` [compound 151], the IC50 is below 10 nM.
Consider `COc1c(C(=O)NCCN2CCOCC2)cccc1-c1cnn2ccc(-c3ccc(F)c(O[C@@H](C)Cn4cnnn4)c3)nc12` [compound 152], for which the IC50 is below 10 nM.
For the compound `C[C@@H](Cn1cnnn1)Oc1cc(-c2ccc3ncn(-c4ccccn4)c3n2)ccc1F` [compound 153, 2-[5-(4-fluoro-3-{[(2S)-1-(1H-tetrazol-1-yl)propan-2-yl]oxy}phenyl)-3H-imidazo[4,5-b]pyridin-3-yl]pyridine], the IC50 was below 10 nM.
Consider `C[C@@H](Cn1cnnn1)Oc1cc(-c2ccn3ncc(-c4cccc(F)c4C#N)c3n2)ccc1F` [compound 154], for which the IC50 is below 10 nM.
As for `C[C@@H](Cn1cnnn1)Oc1cc(-c2ccn3ncc(-c4cccc(F)c4C(N)=O)c3n2)ccc1F` [compound 155], the IC50 was in the range of 10 to 100 nM.
For the compound `C[C@@H](Cn1cnnn1)Oc1cc(-c2ccn3ncc(-c4cncc(C#N)c4)c3n2)ccc1F` [compound 156], the IC50 was below 10 nM.
For `C[C@@H](Cn1cnnn1)Oc1cc(-c2ccn3ncc(-c4cc(F)ccc4C#N)c3n2)ccc1F` [compound 157], the IC50 is below 10 nM.
With `C[C@@H](Cn1cnnn1)Oc1cc(-c2ccn3ncc(-c4cc[nH]n4)c3n2)ccc1F` [compound 158], the IC50 was below 10 nM.
On to `C[C@@H](Cn1cnnn1)Oc1cc(-c2ccc3ncn(-c4cccc(C#N)n4)c3n2)ccc1F` [compound 159], for which the IC50 is below 10 nM.
For the compound `C[C@@H](Cn1cnnn1)Oc1cc(-c2ccn3ncc(-c4ccn(CCN5CCOCC5)n4)c3n2)ccc1F` [compound 160], the IC50 was below 10 nM.
Turning to `C[C@@H](Cn1cnnn1)Oc1cc(-c2ccn3ncc(-c4ccn(CC#N)n4)c3n2)ccc1F` [compound 161], the IC50 was below 10 nM.
Then `C[C@@H](Cn1cnnn1)Oc1cc(-c2ccn3ncc(-c4ccsc4C#N)c3n2)ccc1F` [compound 162], with below 10 nM.
Then `C[C@@H](Cn1cnnn1)Oc1cc(-c2ccn3ncc(-c4cnn(C)c4C#N)c3n2)ccc1F` [compound 163], with below 10 nM; and `C[C@@H](Cn1cnnn1)Oc1cc(-c2ccn3ncc(-c4cn(C)nc4C#N)c3n2)ccc1F` [compound 164], with below 10 nM; and `C[C@@H](Cn1cnnn1)Oc1cccc(-c2ccn3ncc(-c4cccc(C(=O)NS(=O)(=O)C5CC5)c4)c3n2)c1` [compound 165], with below 10 nM.
Turning to `COc1ncccc1-c1cnn2ccc(-c3ccc(F)c(O[C@@H](C)Cn4cnnn4)c3)nc12` [compound 166], the IC50 is below 10 nM.
Turning to `C[C@@H](Cn1cnnn1)Oc1cc(-c2ccn3ncc(-c4ccc[nH]c4=O)c3n2)ccc1F` [compound 167], the IC50 is below 10 nM.
The figure for `CNC(=O)c1ccc(C#N)c(-c2cnc3ccc(-c4ccc(F)c(O[C@@H](C)Cn5cnnn5)c4)nn23)c1` [compound 168] is below 10 nM; for `COCOc1cccc(-c2cnc3ccc(-c4ccc(F)c(O[C@@H](C)Cn5cnnn5)c4)nn23)c1C#N` [compound 169] it is below 10 nM.
For `C[C@@H](Cn1cnnn1)Oc1cc(-c2ccc3ncc(-c4cccc(O)c4C#N)n3n2)ccc1F` [compound 170], the IC50 is below 10 nM.
Then `C[C@@H](Cn1cnnn1)Oc1cc(-c2ccc3ncc(-c4cccc(OCCCN5CCOCC5)c4C#N)n3n2)ccc1F` [compound 171], with below 10 nM; and `COCCCOc1cccc(-c2cnc3ccc(-c4ccc(F)c(O[C@@H](C)Cn5cnnn5)c4)nn23)c1C#N` [compound 172], with below 10 nM.
With `COc1ncccc1-n1cnc2ccc(-c3ccc(F)c(O[C@@H](C)Cn4cnnn4)c3)nc21` [compound 174], the IC50 is 10 to 100 nM.
The figure for `C[C@@H](Cn1cnnn1)Oc1cc(-c2ccc3ncn(-c4ccc[nH]c4=O)c3n2)ccc1F` [compound 175] is 10 to 100 nM; for `C[C@@H](Cn1cnnn1)Oc1cc(-c2ccc3ncn(-c4cccn(C)c4=O)c3n2)ccc1F` [compound 176] it is 10 to 100 nM; for `C[C@@H](Cn1cnnn1)Oc1cc(-c2ccc3ncc(-c4cccc(OCC#N)c4C#N)n3n2)ccc1F` [compound 177] it is below 10 nM.
On to `C[C@@H](Cn1cnnn1)Oc1cc(-c2ccc3ncc(-c4cccc(OC5CCNC5=O)c4C#N)n3n2)ccc1F` (stereo partly drawn) [compound 178], for which the IC50 was below 10 nM.
As to `COC(=O)c1cccc(-n2cnc3ccc(-c4ccc(F)c(O[C@@H](C)Cn5cnnn5)c4)nc32)c1C#N` [compound 179], the IC50 fell in the range of 10 to 100 nM.
Then `COCCNc1cccc(-c2cnn3ccc(-c4ccc(F)c(O[C@@H](C)Cn5cnnn5)c4)nc23)c1C#N` [compound 180], with below 10 nM; and `C[C@@H](Cn1cnnn1)Oc1cc(-c2ccc3ncc(-c4cccc(N)c4C#N)n3n2)ccc1F` [compound 181], with below 10 nM.
Take `COCCC(=O)Nc1cccc(-c2cnc3ccc(-c4ccc(F)c(O[C@@H](C)Cn5cnnn5)c4)nn23)c1C#N` [compound 182]: the IC50 was below 10 nM.
Consider `C#Cc1ccccc1-c1cnc2ccc(-c3ccc(F)c(O[C@@H](C)Cn4cnnn4)c3)nn12` [compound 183], for which the IC50 is below 10 nM.
Then `C[C@@H](Cn1cnnn1)Oc1cc(-c2ccc3ncc(-c4cc(C(N)=O)ccc4C(N)=O)n3n2)ccc1F` [compound 184], with above 100 nM; and `C[C@@H](Cn1cnnn1)Oc1cc(-c2ccc3ncc(-c4cc(C#N)ccc4C#N)n3n2)ccc1F` [compound 185], with below 10 nM.
The figure for `C[C@@H](Cn1cnnn1)Oc1cc(-c2ccc3ncc(-c4cccc(C#N)c4C#N)n3n2)ccc1F` [compound 186] is below 10 nM; for `C[C@@H](Cn1cnnn1)Oc1cc(-c2ccc3ncc(-c4cc(Br)cc5c4OCC5)n3n2)ccc1F` [compound 187] it is below 10 nM.
For the compound `COC(=O)c1cccc(-n2cnc3ccc(-c4ccc(F)c(O[C@@H](C)Cn5cnnn5)c4)nc32)n1` [compound 188], the IC50 is below 10 nM.
As to `C[C@@H](Cn1cnnn1)Oc1cc(-c2ccc3ncn(-c4cccc(C(=O)O)c4C#N)c3n2)ccc1F` [compound 189], the IC50 was 10 to 100 nM.
In the case of `C=Cc1ccccc1-c1cnc2ccc(-c3ccc(F)c(O[C@@H](C)Cn4cnnn4)c3)nn12` [compound 190], the IC50 was below 10 nM.
On to `C[C@@H](Cn1cnnn1)Oc1cc(-c2ccc3ncc(-c4cccc(N=S(C)(C)=O)c4C#N)n3n2)ccc1F` [compound 191], for which the IC50 is below 10 nM.
Then `COCCN1C(=O)c2cccc(-n3cnc4ccc(-c5ccc(F)c(O[C@@H](C)Cn6cnnn6)c5)nc43)c2C1=O` [compound 192], with above 100 nM; and `C[C@@H](Cn1cnnn1)Oc1cc(-c2ccc3ncn(-c4cccc5c4C(=O)N(C)C5=O)c3n2)ccc1F` [compound 193], with above 100 nM; and `C[C@@H](Cn1cnnn1)Oc1cc(-c2ccc3ncc(-c4cccnc4N)n3n2)ccc1F` [compound 194], with 10 to 100 nM.
Regarding `CC(Cn1cnnn1)Oc1cc(-c2ccc3ncc(-c4cccc(OC5CCC(N6CC(C)OC(C)C6)CC5)c4C#N)n3n2)ccc1F` [compound 195, 2-[6-(4-fluoro-3-{[(2S)-1-(1H-tetrazol-1-yl)propan-2-yl]oxy}phenyl)imidazo[1,2-b]pyridazin-3-yl]-6-{[(1r,4r)-4-[(2R,6S)-2,6-dimethylmorpholin-4-yl]cyclohexyl]oxy}benzonitrile], the IC50 is below 10 nM.
On to `C[C@@H](Cn1cnnn1)Oc1cc(-c2ccc3ncc(-c4cccn(C)c4=O)n3n2)ccc1F` [compound 196], for which the IC50 is below 10 nM.
As to `COc1cccc(-c2cnc3ccc(-c4ccc(F)c(O[C@@H](C)Cn5cnnn5)c4)nn23)c1C#N` [compound 197], the IC50 is below 10 nM.
In the case of `C[C@@H](Cn1cnnn1)Oc1cc(-c2ccc3ncc(-c4cccc(OCC5CCNC5=O)c4C#N)n3n2)ccc1F` (stereo partly drawn) [compound 198], the IC50 was below 10 nM.
For `C[C@@H](Cn1cnnn1)Oc1cc(-c2ccc3ncc(-c4cccc(OCC5CNC(=O)C5)c4C#N)n3n2)ccc1F` (stereo partly drawn) [compound 199], the IC50 is below 10 nM.
`C[C@@H](Cn1cnnn1)Oc1cc(-c2ccc3ncc(-c4cccc(OCC5CCC(=O)N5)c4C#N)n3n2)ccc1F` (stereo partly drawn) [compound 200]: the IC50 is below 10 nM.
Turning to `C[C@@H](Cn1cnnn1)Oc1cc(-c2ccc3ncc(-c4cccc(OCC5CCN(C)C5)c4C#N)n3n2)ccc1F` (stereo partly drawn) [compound 201], the IC50 is below 10 nM.
As to `C[C@@H](Cn1cnnn1)Oc1cc(-c2ccc3ncc(-c4cccc(OCC(N)=O)c4C#N)n3n2)ccc1F` [compound 202], the IC50 is below 10 nM.
The figure for `C[C@@H](Cn1cnnn1)Oc1cc(-c2ccc3ncc(-c4cccc(OCC5CCOCC5)c4C#N)n3n2)ccc1F` [compound 203] is below 10 nM; for `CC(=O)NCCCOc1cccc(-c2cnc3ccc(-c4ccc(F)c(O[C@@H](C)Cn5cnnn5)c4)nn23)c1C#N` [compound 204] it is below 10 nM; for `CC(=O)N(C)CCOc1cccc(-c2cnc3ccc(-c4ccc(F)c(O[C@@H](C)Cn5cnnn5)c4)nn23)c1C#N` [compound 205] it is below 10 nM.
`C[C@@H](Cn1cnnn1)Oc1cc(-c2ccc3ncc(-c4cccc(OCC(F)F)c4C#N)n3n2)ccc1F` [compound 206]: the IC50 was below 10 nM.
Regarding `C[C@@H](Cn1cnnn1)Oc1cc(-c2ccc3ncc(-c4cccc(OCCN5CCCC5=O)c4C#N)n3n2)ccc1F` [compound 207], the IC50 is below 10 nM.
`C[C@@H](Cn1cnnn1)Oc1cc(-c2ccc3ncc(-c4cccc(OCCC5CCNCC5)c4C#N)n3n2)ccc1F` [compound 208]: the IC50 is below 10 nM.
In the case of `C[C@@H](Cn1cnnn1)Oc1cc(-c2ccc3ncc(-c4cccc(OCCOCCN(C)C)c4C#N)n3n2)ccc1F` [compound 209], the IC50 is below 10 nM.

Source of the values: patent publication US12528816B2, “Substituted imidazo [1,2-b] pyridazines and [1, 2, 4] triazolo [ 4,3-b] pyridazines as camkii inhibitors” (Cardurion Pharmaceuticals, INC., priority 2020, dated 2026).
